# Test system: TT cells xenografted
# Experiment: TT cell xenograft in SCID mice
# Format: in vivo
# Details: 0.3, 1.0, or 3.0 mg/kg daily, oral gavage, 28 days; all tested doses
# Description: FIG. 7: Anti-tumorigenic activity of Pz-1 on TT cells xenografted into SCID mice. […] Average volumes of tumors are reported±SD (standard deviation). TT cells (7.5×10^6/mouse) were inoculated subcutaneously into dorsal portions (both sides) of 39 female SCID mice (Jackson Laboratories, Bar Harbor, Me.). After 5 weeks, at least one tumour was present in each mouse and a total of 70 tumours were visible: 56 tumours were 40-150 mm^3 and 14 tumours were <40 mm^3. […] Tumor-bearing animals were randomly assigned to receive Pz-1 (0.3, 1.0, or 3.0 mg/kg, daily) (29 mice, 52 tumours) or vehicle (10 mice, 18 tumours) by oral gavage. Treatment was administered for 28 consecutive days. Tumor diameters were measured with calipers every week. Tumor volumes (V) were calculated by the rotational ellipsoid formula: V=A×B^2/2 (A=axial diameter; B=rotational diameter) and reported as average volumes±standard deviations. […]
# TT cells (7.5×10^6/mouse) were inoculated subcutaneously into dorsal portions (both sides) of 39 SCID mice (Jackson Laboratories, Bar Harbor, Me.). […] Tumor diameters were measured with callipers every week. Tumor volumes (V) were calculated by the rotational ellipsoid formula: V=A×B^2/2 (A=axial diameter; B=rotational diameter) and reported as average volumes±standard deviations. […] Tumor diameters were measured with calipers every 1-2 days. […]
smiles,measurement,value
"Cn1cc(-c2ccc3c(c2)ncn3-c2ccc(CC(=O)Nc3cc(C(C)(C)C)on3)cc2)cn1 [Pz-1, N-(5-(tert-butyl)isoxazol-3-yl)-2-(4-(5-(1-methyl-1H-pyrazol-4-yl)-1H-benzo[d]imidazol-1-yl)phenyl)acetamide]",tumor growth,strongly inhibited tumor growth

# Reference: patent US9988371B2, “Benzimidazole analogues and related methods” (The Arizona Board of Regents, on Behalf of the University …, priority 2014, dated 2018)
